US11203601B2, “Tricyclic compounds as glycogen synthase kinase 3 (GSK3) inhibitors and uses thereof” (The Broad Institute, Inc., priority 2017, dated 2021)

Experiments:
Experiment in all cases: Carna kinome panel
Assay type in all cases: biochemical
Conditions in all cases: read-out: % Inhibition at 10 μM of the test compound
[1] = target: TRKB (Homo sapiens (Human), UniProt Q16620)
[2] = target: IRR (Homo sapiens (Human), UniProt P14616)
[3] = target: AXL (Homo sapiens (Human), UniProt P30530)
[4] = target: BRAF_Cascade (Homo sapiens (Human), UniProt P15056)
[5] = target: EPHB4 (Homo sapiens (Human), UniProt P54760)
[6] = target: PRKX (Homo sapiens (Human), UniProt P51817)
[7] = target: INSR (Homo sapiens (Human), UniProt P06213)
[8] = target: MER (Homo sapiens (Human), UniProt Q12866)
[9] = target: p38β (Homo sapiens (Human), UniProt Q15759)
[10] = target: MAP3K2_Cascade (Homo sapiens (Human), UniProt Q9Y2U5)
[11] = target: FGFR4 (Homo sapiens (Human), UniProt P22455)
[12] = target: PKD3 (Homo sapiens (Human), UniProt O94806)
[13] = target: FYN(isoform b) (Homo sapiens (Human), UniProt P06241)
[14] = target: EPHA1 (Homo sapiens (Human), UniProt P21709)
[15] = target: RSK2 (Homo sapiens (Human), UniProt P51812)
[16] = target: p38α (Homo sapiens (Human), UniProt Q16539)
[17] = target: DDR2 (Homo sapiens (Human), UniProt Q16832)
[18] = target: Erk2 (Homo sapiens (Human), UniProt P28482)
[19] = target: HGK (Homo sapiens (Human), UniProt O95819)
[20] = target: HIPK1 (Homo sapiens (Human), UniProt Q86Z02)
[21] = target: FMS (Homo sapiens (Human), UniProt P07333)
[22] = target: EPHA4 (Homo sapiens (Human), UniProt P54764)
[23] = target: ITK (Homo sapiens (Human), UniProt Q08881)
[24] = target: PKACα (Homo sapiens (Human), UniProt P17612)
[25] = target: IKKα (Homo sapiens (Human), UniProt O15111)
[26] = target: SGK (Homo sapiens (Human), UniProt O00141)
[27] = target: RSK1 (Homo sapiens (Human), UniProt Q15418)
[28] = target: PYK2 (Homo sapiens (Human), UniProt Q14289)
[29] = target: RON (Homo sapiens (Human), UniProt Q04912)
[30] = target: HER4 (Homo sapiens (Human), UniProt Q15303)
[31] = target: PDK1 (Homo sapiens (Human), UniProt O15530)
[32] = target: FGFR3(K650M) (Homo sapiens (Human), UniProt P22607, K650M)
[33] = target: RSK4 (Homo sapiens (Human), UniProt Q9UK32)
[34] = target: TSSK1 (Homo sapiens (Human), UniProt Q9BXA7)
[35] = target: CaMK2γ (Homo sapiens (Human), UniProt Q13555)
[36] = target: FES (Homo sapiens (Human), UniProt P07332)
[37] = target: MAPKAPK 5 (Homo sapiens (Human), UniProt Q8IW41)
[38] = target: CK2α2/β (Homo sapiens (Human), UniProt P19784)
Experimental: Briefly, a selection of compounds was screened against a panel of kinases at a single concentration of 10 μM. […] This was completed using one of two assays, depending on the kinase being examined: 1) IMAP Assay. A solution of 4× inhibitor, 4× substrate/ATP/metal solution and 2× kinase solution was prepared with assay buffer (20 mM HEPES, 0.01% Tween-20, 2 mM DTT, pH 7.4) and mixed, then incubated in 384-well black plates for 1 hour at room temperature. The IMAP binding reagent (IMAP Screening Express kit; Molecular Devices) was added to each well and incubated for 30 minutes. […] 2) Off-Chip Mobility Shift Assay (MSA). A solution of 4× inhibitor, 4× substrate/ATP/metal solution and 2× kinase solution was prepared with assay buffer (20 mM HEPES, 0.01% Triton X-100, 2 mM DTT, pH 7.5) and mixed, then incubated in 384-well plates for 1 or 5 hours depending on the kinase, at room temperature. Termination buffer (QuickScout Screening assist MSA; Carna Biosciences) was added to each well. The entire reaction mixture was then applied to a LabChip3000 system (Caliper Life Science), and the product and substrate peptide peaks were separated and quantified. […] The entire reaction mixture was then applied to a LabChip3000 system (Caliper Life Science), and the product and substrate peptide peaks were separated and quantified.

[39] = target: EGFR(T790M) (Homo sapiens (Human), UniProt P00533, T790M)
[40] = target: EGFR(T790M/L858R) (Homo sapiens (Human), UniProt P00533, L858R/T790M)
[41] = target: MAPKAPK3 (Homo sapiens (Human), UniProt Q16644)
MAPKAPK3, sequence (Q16644 whole entry): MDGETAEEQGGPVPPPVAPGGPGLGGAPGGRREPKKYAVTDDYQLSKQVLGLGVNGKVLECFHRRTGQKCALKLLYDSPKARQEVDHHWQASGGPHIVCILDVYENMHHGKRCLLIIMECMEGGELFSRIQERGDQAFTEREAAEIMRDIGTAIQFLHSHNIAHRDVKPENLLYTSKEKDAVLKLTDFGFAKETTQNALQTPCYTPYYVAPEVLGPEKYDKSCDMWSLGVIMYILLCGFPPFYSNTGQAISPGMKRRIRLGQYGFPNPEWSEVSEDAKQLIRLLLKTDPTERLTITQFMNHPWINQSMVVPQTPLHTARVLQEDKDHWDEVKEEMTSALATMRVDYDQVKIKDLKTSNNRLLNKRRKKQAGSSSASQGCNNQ

TRKB, sequence (Q16620 32-822): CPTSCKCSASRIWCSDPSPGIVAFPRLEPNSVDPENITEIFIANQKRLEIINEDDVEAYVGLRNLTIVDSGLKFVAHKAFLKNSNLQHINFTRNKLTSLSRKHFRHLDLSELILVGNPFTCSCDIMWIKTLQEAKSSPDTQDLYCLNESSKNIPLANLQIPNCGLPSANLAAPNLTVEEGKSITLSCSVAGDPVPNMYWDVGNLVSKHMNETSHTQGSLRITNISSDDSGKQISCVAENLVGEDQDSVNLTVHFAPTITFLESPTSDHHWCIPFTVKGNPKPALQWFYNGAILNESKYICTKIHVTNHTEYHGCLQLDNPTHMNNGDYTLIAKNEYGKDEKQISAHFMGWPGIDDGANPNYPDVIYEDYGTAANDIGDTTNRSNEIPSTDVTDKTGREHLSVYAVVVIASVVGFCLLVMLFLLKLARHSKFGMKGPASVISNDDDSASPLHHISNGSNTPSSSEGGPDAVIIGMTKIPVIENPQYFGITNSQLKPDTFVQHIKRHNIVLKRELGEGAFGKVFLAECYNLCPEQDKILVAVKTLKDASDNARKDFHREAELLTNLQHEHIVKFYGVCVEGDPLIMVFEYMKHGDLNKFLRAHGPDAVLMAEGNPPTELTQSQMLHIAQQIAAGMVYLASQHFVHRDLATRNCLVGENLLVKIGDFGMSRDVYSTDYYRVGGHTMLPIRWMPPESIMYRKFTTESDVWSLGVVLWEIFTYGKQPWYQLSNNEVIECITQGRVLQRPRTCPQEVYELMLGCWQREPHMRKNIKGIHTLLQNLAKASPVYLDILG
ITK, sequence (Q08881 whole entry): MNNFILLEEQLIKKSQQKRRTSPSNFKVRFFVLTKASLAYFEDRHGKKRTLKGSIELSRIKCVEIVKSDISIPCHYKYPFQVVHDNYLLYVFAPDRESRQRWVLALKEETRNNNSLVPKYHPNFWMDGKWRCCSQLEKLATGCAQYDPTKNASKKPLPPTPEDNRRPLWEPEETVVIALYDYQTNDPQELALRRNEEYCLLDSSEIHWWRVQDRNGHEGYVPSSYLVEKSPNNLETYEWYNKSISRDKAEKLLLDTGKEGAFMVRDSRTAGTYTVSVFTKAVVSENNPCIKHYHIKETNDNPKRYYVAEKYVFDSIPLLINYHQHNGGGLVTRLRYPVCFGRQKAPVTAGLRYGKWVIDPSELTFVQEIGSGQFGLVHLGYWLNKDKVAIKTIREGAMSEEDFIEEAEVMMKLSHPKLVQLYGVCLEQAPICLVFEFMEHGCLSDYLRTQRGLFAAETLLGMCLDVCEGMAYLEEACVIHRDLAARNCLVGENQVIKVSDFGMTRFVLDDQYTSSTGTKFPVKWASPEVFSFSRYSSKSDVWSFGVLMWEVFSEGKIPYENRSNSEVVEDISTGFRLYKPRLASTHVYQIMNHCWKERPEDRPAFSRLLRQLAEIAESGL
IRR, sequence (P14616 27-1297): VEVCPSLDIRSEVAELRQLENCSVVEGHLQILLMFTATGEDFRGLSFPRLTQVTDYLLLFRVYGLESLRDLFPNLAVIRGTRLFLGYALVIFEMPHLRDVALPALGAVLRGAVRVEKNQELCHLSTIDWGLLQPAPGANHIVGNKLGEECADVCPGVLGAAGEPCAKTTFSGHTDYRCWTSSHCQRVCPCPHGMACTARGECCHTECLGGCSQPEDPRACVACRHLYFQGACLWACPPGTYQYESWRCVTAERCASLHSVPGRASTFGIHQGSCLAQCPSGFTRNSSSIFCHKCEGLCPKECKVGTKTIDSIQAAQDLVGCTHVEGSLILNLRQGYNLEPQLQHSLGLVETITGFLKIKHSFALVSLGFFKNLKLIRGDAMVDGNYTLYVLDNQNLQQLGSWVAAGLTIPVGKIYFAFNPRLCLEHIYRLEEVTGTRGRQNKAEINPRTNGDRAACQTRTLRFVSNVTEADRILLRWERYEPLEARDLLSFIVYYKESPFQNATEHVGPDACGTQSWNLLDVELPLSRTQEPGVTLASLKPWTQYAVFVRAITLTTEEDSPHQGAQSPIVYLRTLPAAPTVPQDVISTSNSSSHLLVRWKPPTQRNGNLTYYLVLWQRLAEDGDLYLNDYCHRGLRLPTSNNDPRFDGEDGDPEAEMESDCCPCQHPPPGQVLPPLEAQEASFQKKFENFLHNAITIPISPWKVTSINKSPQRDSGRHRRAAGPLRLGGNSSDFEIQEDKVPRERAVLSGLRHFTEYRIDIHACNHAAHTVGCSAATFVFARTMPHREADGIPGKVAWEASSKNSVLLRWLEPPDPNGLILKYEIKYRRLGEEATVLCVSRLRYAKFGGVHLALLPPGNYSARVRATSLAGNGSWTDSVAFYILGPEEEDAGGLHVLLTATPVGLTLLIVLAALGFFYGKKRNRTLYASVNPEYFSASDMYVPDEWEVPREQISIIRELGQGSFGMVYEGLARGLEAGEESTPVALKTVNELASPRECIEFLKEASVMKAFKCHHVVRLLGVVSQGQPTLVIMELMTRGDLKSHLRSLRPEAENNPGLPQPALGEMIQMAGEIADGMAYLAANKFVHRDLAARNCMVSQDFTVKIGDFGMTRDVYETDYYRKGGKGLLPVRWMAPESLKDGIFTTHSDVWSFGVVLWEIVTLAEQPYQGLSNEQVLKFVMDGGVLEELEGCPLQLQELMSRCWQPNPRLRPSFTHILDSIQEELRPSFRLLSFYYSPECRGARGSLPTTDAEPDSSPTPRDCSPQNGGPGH
PRKX, sequence (P51817 whole entry): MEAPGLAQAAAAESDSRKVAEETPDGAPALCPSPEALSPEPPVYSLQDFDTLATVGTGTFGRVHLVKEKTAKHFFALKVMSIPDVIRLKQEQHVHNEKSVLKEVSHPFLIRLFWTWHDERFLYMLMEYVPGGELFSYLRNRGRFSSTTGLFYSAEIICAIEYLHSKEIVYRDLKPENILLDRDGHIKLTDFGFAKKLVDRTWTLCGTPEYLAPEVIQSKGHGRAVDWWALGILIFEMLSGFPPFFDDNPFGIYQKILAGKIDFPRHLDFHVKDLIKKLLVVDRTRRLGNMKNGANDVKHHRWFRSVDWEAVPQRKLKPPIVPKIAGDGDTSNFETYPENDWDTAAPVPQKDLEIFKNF
PDK1, sequence (O15530 whole entry): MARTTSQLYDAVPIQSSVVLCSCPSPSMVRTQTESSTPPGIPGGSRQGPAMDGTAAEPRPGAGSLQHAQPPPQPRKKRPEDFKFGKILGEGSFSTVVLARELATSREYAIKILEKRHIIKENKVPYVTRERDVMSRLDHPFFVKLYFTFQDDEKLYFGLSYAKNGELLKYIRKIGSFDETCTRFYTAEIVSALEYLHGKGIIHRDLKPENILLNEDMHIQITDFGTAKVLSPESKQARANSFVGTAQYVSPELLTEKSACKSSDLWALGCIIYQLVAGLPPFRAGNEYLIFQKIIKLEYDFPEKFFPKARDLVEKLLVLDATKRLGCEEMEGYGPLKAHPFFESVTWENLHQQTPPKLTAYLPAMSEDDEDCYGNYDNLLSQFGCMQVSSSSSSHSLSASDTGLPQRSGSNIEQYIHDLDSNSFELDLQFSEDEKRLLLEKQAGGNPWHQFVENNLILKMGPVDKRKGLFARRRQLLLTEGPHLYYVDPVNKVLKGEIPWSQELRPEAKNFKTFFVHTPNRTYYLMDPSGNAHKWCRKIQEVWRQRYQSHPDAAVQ
TSSK1, sequence (Q9BXA7 whole entry): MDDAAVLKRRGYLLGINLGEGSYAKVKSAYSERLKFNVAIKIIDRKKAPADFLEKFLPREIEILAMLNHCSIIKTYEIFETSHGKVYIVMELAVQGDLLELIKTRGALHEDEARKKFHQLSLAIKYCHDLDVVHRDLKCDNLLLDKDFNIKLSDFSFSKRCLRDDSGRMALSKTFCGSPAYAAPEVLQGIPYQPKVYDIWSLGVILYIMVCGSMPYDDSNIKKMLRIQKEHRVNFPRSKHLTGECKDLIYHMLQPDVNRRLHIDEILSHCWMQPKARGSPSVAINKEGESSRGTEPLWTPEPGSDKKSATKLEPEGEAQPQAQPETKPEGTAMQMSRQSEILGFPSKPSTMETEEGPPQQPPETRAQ
CaMK2γ, sequence (Q13555 whole entry): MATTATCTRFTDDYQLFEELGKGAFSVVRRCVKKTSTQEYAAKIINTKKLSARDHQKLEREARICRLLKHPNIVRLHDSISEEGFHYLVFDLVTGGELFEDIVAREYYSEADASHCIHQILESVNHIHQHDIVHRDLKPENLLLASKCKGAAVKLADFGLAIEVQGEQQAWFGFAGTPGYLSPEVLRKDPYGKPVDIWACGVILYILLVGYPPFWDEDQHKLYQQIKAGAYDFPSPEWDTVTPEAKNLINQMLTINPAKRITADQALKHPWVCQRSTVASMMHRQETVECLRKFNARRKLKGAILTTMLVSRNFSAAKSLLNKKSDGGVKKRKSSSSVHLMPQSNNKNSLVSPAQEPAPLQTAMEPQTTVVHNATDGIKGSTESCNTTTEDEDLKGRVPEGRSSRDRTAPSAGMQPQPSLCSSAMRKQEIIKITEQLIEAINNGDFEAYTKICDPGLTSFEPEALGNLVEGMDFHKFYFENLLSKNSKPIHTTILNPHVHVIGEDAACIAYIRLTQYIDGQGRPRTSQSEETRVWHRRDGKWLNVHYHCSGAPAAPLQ

## CCC1(c2ccccc2)C2=C(CC(C)(C)CC2=O)Nc2ncsc21 (centres unmarked) [Compound 1, 9-Ethyl-6,6-dimethyl-9-phenyl-5,6,7,9-tetrahydrothiazolo[4,5-b]quinolin-8(4H)-one]
[1]
  inhibition at 10 µM: 16%
[2]
  inhibition at 10 µM: 6.6%
[3]
  inhibition at 10 µM: 6.5%
[4]
  inhibition at 10 µM: 6.2%
[5]
  inhibition at 10 µM: 5.3%
[6]
  inhibition at 10 µM: 4.2%
[7]
  inhibition at 10 µM: 4.1%
[8]
  inhibition at 10 µM: 3.8%
[9]
  inhibition at 10 µM: 3.8%
[10]
  inhibition at 10 µM: 3.4%
[11]
  inhibition at 10 µM: 2.8%
[12]
  inhibition at 10 µM: 2.7%
[13]
  inhibition at 10 µM: 2.4%
[14]
  inhibition at 10 µM: 2%
[15]
  inhibition at 10 µM: 1.4%
[16]
  inhibition at 10 µM: 1.1%
[17]
  inhibition at 10 µM: 0.6%
[18]
  inhibition at 10 µM: 0.5%
[19]
  inhibition at 10 µM: 0.4%
[20]
  inhibition at 10 µM: 0.3%
[21]
  inhibition at 10 µM: 0.3%
[22]
  inhibition at 10 µM: 0%
[23]
  inhibition at 10 µM: 0%
[24]
  inhibition at 10 µM: -0.6%
[25]
  inhibition at 10 µM: -1.6%
[26]
  inhibition at 10 µM: -1.7%
[27]
  inhibition at 10 µM: -2%
[28]
  inhibition at 10 µM: -3.1%
[29]
  inhibition at 10 µM: -3.9%
[30]
  inhibition at 10 µM: -4%
[31]
  inhibition at 10 µM: -4%
[32]
  inhibition at 10 µM: -4%
[33]
  inhibition at 10 µM: -4.6%
[34]
  inhibition at 10 µM: -5%
[35]
  inhibition at 10 µM: -5.2%
[36]
  inhibition at 10 µM: -6.2%
[37]
  inhibition at 10 µM: -8.5%
[38]
  inhibition at 10 µM: -11.4%
[39]
  inhibition at 10 µM: -13.8%
[40]
  inhibition at 10 µM: -15.5%
[41]
  inhibition at 10 µM: -15.5%
